Experiment [1] has as its system M. tuberculosis H37Rv (ATCC 25618 Wild-type). The experiment is described as follows: microbe, parasite or virus in culture. The class given is cell-based.
The subject of experiment [2] is M. tuberculosis HN-878 (wild-type). The experiment is described as follows: microbe, parasite or virus in culture. The class given is cell-based.
Another experiment relates to S. aureus NCTC 12493. The experiment is described as follows: in vitro antistaphylococcal activity, broth microdilution method (MIC/MBC). The class given is cell-based, Staphylococcus aureus. As to conditions: for MIC / MBC: Staphylococcus aureus; for MIC: NCTC12493, lowest concentration inhibiting visible growth; for MBC: NCTC12493, lowest concentration reducing viability of inoculum by ≥99.9%, 24 h at 37° C. In general terms: Dilution methods test growth across graded concentrations, often in twofold steps.

Where [3] appears, read: Mycobacterium tuberculosis, 120 h; read-out: Mycobacterium tuberculosis strain MIC90, H37Rv.
The mark [4] stands for this setting: Mycobacterium tuberculosis, 120 h; read-out: Mycobacterium tuberculosis strain MIC90, HN-878.

≈ marks a conversion by molar mass, not a printed value. Where two headings read alike, the source gives them in different places.

Usually MIC stands for the lowest concentration found to suppress growth. A higher MIC goes with weaker potency. Broadly, the MBC is the lowest tested concentration that kills the bacteria rather than only halting them. Low readings indicate more potent killing, high ones less potent killing. Consider `CO[C@H]1/C=C/O[C@@]2(C)Oc3c(C)c(O)c4c(O)c(c(CNCCOCCOCCOCn5cc(CCn6cc(F)c(=O)[nH]c6=O)nn5)c(O)c4c3C2=O)NC(=O)/C(C)=C\C=C\[C@H](C)[C@H](C)[C@@H](C)[C@@H](O)[C@@H](C)[C@H](OC(C)=O)[C@@H]1C` [Compound 3B], for which the MIC90 in experiment [1] (setting [3]) worked out at 0.0039 µM (≈ 0.00427 µg/mL). In experiment [2] (setting [4]), the MIC90 is 0.096 ± 0.064 µM (≈ 0.105 µg/mL). In addition, in the experiment with S. aureus NCTC 12493, the “MBC value relative to MIC value” is given as “the same”, the MIC amounted to 2 µg/mL (≈ 1.83 µM) and the MBC was 2 µg/mL (≈ 1.83 µM).

Turning to `CO[C@H]1/C=C/O[C@@]2(C)Oc3c(C)c(O)c4c(O)c(c(CNCCOCCOCCOCn5cc(CCCn6cc(F)c(=O)[nH]c6=O)nn5)c(O)c4c3C2=O)NC(=O)/C(C)=C\C=C\[C@H](C)[C@H](C)[C@@H](C)[C@@H](O)[C@@H](C)[C@H](OC(C)=O)[C@@H]1C` [Compound 3C], the MIC90 was 0.0034 µM (≈ 0.00377 µg/mL) in experiment [1] (setting [3]) and 0.07 ± 0.042 µM (≈ 0.0776 µg/mL) in experiment [2] (setting [4]).

Take `CO[C@H]1/C=C/O[C@@]2(C)Oc3c(C)c(O)c4c(O)c(c(/C=N/N5CCN(C)CC5)c(O)c4c3C2=O)NC(=O)/C(C)=C\C=C\[C@H](C)[C@H](O)[C@@H](C)[C@@H](O)[C@@H](C)[C@H](OC(C)=O)[C@@H]1C` [Rifampicin, reference compound]: the MIC90 in experiment [1] (Mycobacterium tuberculosis, 120 h, read-out: Mycobacterium tuberculosis strain MIC90, H37Rv) turned out to be 0.0045 µM (≈ 0.0037 µg/mL). In addition, the MIC90 in experiment [2] (Mycobacterium tuberculosis, 120 h, read-out: Mycobacterium tuberculosis strain MIC90, HN-878) amounted to 0.02 µM (≈ 0.0165 µg/mL). For the same compound, in the experiment with S. aureus NCTC 12493, the “MBC value relative to MIC value” amounted to 16 times, the lowest concentration to inhibit growth (MIC) was 0.25 µg/mL (≈ 0.304 µM) and the MBC was 4 µg/mL (≈ 4.86 µM).

Turning to `NNC(=O)c1ccncc1` [Isoniazid, reference compound], the MIC90 in experiment [1] (setting [3]) was 0.28 µM (≈ 0.0384 µg/mL); in experiment [2] (setting [4]), 0.29 µM (≈ 0.0398 µg/mL).

`O=c1[nH]cc(F)c(=O)[nH]1` [Compound 5-FU, 5-Fluorouracil, reference compound]: in the experiment with S. aureus NCTC 12493, the “MBC value relative to MIC value” was determined as 8 times, the minimal inhibitory concentration (MIC) was 2 µg/mL (≈ 15.4 µM) and the MBC is 16 µg/mL (≈ 123 µM).

With `CO[C@H]1/C=C/O[C@@]2(C)Oc3c(C)c(O)c4c(O)c(c(CNCCCn5cc(CCn6cc(F)c(=O)[nH]c6=O)nn5)c(O)c4c3C2=O)NC(=O)/C(C)=C\C=C\[C@H](C)[C@H](C)[C@@H](C)[C@@H](O)[C@@H](C)[C@H](OC(C)=O)[C@@H]1C` [Compound 3A], in experiment [1] (setting [3]), the MIC90 was 0.0039 µM (≈ 0.00386 µg/mL). Also, the MIC90 in experiment [2] (setting [4]) was 0.059 ± 0.01 µM (≈ 0.0584 µg/mL). Moreover, in the experiment with S. aureus NCTC 12493, the “MBC value relative to MIC value” is given as “the same”, inhibition of growth (MIC) required 1 µg/mL (≈ 1.01 µM) and the MBC is 1 µg/mL (≈ 1.01 µM).

These data come from patent publication US20250241914A1, “BIFUNCTIONAL PHARMACEUTICAL COMPOUNDS” (DE MONTFORT UNIVERSITY, priority 2024, published 2025).
